Each molecule was assayed against T1, ALK5 kinase (Homo sapiens, UniProt P36897) (assay: Activity inhibition test on ALK5 enzyme (LanthaScreen Eu binding kinase assay)). Conditions: kinase tracer 178, 60 minutes at room temperature.
T1 construct: GST; purchased Thermo Fisher Scientific Solutions
T1 sequence (P36897 34-503): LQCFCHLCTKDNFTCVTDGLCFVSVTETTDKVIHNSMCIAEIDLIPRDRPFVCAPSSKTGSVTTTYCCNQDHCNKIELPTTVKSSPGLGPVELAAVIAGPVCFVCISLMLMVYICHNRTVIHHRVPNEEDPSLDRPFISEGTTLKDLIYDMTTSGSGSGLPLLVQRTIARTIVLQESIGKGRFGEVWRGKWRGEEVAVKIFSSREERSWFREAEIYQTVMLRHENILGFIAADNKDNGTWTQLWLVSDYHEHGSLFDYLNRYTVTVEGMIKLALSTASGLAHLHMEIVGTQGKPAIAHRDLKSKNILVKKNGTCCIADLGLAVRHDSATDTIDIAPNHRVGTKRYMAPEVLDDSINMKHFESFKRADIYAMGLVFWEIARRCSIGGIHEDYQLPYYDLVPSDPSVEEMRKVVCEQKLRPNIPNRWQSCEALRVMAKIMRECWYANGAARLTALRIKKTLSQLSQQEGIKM
In short: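 TR-FRET tracer-displacement format with final 5 nM ALK5, 2 nM Eu-GST antibody and 10 nM kinase tracer 178. Compound dilution series ran 1 μM–0.0001 μM, incubated 60 min at room temperature with stirring. Fluorescence was read ([…]), and IC50 came from percent inhibition versus control.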
With `COc1ccc(NC(=O)c2cc(-c3ccc4nccnc4c3)n(-c3cccc(C)n3)n2)cc1` [Example 164, N-(4-methoxyphenyl)-1-(6-methylpyridin-2-yl)-5-(quinoxalin-6-yl)-1H-pyrazole-3-carboxyamide] the IC50 was 18 nM. `COc1cccc(NC(=O)c2cc(-c3ccc4nccnc4c3)n(-c3cccc(C)n3)n2)c1` [Example 165, N-(3-methoxyphenyl)-1-(6-methylpyridin-2-yl)-5-(quinoxalin-6-yl)-1H-pyrazole-3-carboxyamide] was tested, and the IC50 was 24 nM. For `COc1ccccc1NC(=O)c1cc(-c2ccc3nccnc3c2)n(-c2cccc(C)n2)n1` [Example 166, N-(2-methoxyphenyl)-1-(6-methylpyridin-2-yl)-5-(quinoxalin-6-yl)-1H-pyrazole-3-carboxyamide], the IC50 was ~100 nM. With `COCCOc1ccc(NC(=O)c2cc(-c3ccc4nccnc4c3)n(-c3cccc(C)n3)n2)cc1` [Example 167, N-(4-(2-methoxyethoxy)phenyl)-1-(6-methylpyridin-2-yl)-5-(quinoxalin-6-yl)-1H-pyrazole-3-carboxyamide] the IC50 was ≤ 100 nM. With `Cc1cccc(-n2nc(C(=O)Nc3ccc4c(c3)OCO4)cc2-c2ccc3nccnc3c2)n1` [Example 168, N-(benzo[d][1,3]dioxol-5-yl)-1-(6-methylpyridin-2-yl)-5-(quinoxalin-6-yl)-1H-pyrazole-3-carboxyamide] the IC50 was ≤ 100 nM. In the case of `Cc1cccc(-n2nc(C(=O)Nc3ccc4c(c3)OCCO4)cc2-c2ccc3nccnc3c2)n1` [Example 169, N-(2,3-dihydrobenzo[b][1,4]dioxin-6-yl)-1-(6-methylpyridin-2-yl)-5-(quinoxalin-6-yl)-1H-pyrazole-3-carboxyamide], the IC50 is reported as 10 to 100 nM. For `Cc1cccc(-n2nc(C(=O)Nc3ccc(N(C)C)cc3)cc2-c2ccc3nccnc3c2)n1` [Example 170, N-(4-(dimethylamino)phenyl)-1-(6-methylpyridin-2-yl)-5-(quinoxalin-6-yl)-1H-pyrazole-3-carboxyamide], the IC50 was < 100 nM. With `Cc1cccc(-n2nc(C(=O)Nc3ccc(N4CCOCC4)cc3)cc2-c2ccc3nccnc3c2)n1` [Example 171, 1-(6-methylpyridin-2-yl)-N-(4-morpholinophenyl)-5-(quinoxalin-6-yl)-1H-pyrazole-3-carboxyamide] the IC50 was 10 to 100 nM. Molecule `Cc1cccc(-n2nc(C(=O)Nc3ccc(N4CCN(C)CC4)cc3)cc2-c2ccc3nccnc3c2)n1` [Example 172, N-(4-(4-methylpiperazin-1-yl)phenyl)-1-(6-methylpyridin-2-yl)-5-(quinoxalin-6-yl)-1H-pyrazole-3-carboxyamide] has an IC50 of 10 to 100 nM. Work on `CC(=O)N1CCN(c2ccc(NC(=O)c3cc(-c4ccc5nccnc5c4)n(-c4cccc(C)n4)n3)cc2)CC1` [Example 173, N-(4-(4-acetylpiperazin-1-yl)phenyl)-1-(6-methylpyridin-2-yl)-5-(quinoxalin-6-yl)-1H-pyrazole-3-carboxyamide] yielded an IC50 of 10 to 100 nM. With `Cc1cccc(-n2nc(C(=O)Nc3ccc(C#N)cc3)cc2-c2ccc3nccnc3c2)n1` [Example 174, N-(4-cyanophenyl)-1-(6-methylpyridin-2-yl)-5-(quinoxalin-6-yl)-1H-pyrazole-3-carboxyamide] the IC50 was < 100 nM. For `Cc1cccc(-n2nc(C(=O)Nc3cccc(C#N)c3)cc2-c2ccc3nccnc3c2)n1` [Example 175, N-(3-cyanophenyl)-1-(6-methylpyridin-2-yl)-5-(quinoxalin-6-yl)-1H-pyrazole-3-carboxyamide], the IC50 was < 100 nM. With `Cc1cccc(-n2nc(C(=O)Nc3ccc(CN4CCOCC4)cc3)cc2-c2ccc3nccnc3c2)n1` [Example 177, 1-(6-methylpyridin-2-yl)-N-(4-(morpholinomethyl)phenyl)-5-(quinoxalin-6-yl)-1H-pyrazole-3-carboxyamide] the IC50 was ~100 nM. `CC(=O)c1ccc(NC(=O)c2cc(-c3ccc4nccnc4c3)n(-c3cccc(C)n3)n2)cc1` [Example 178, N-(4-acetylphenyl)-1-(6-methylpyridin-2-yl)-5-(quinoxalin-6-yl)-1H-pyrazole-3-carboxyamide] gave an IC50 of 10 to 100 nM. In the case of `CC(=O)c1cccc(NC(=O)c2cc(-c3ccc4nccnc4c3)n(-c3cccc(C)n3)n2)c1` [Example 179, N-(3-acetylphenyl)-1-(6-methylpyridin-2-yl)-5-(quinoxalin-6-yl)-1H-pyrazole-3-carboxyamide], the IC50 is reported as < 100 nM. `Cc1cccc(-n2nc(C(=O)Nc3ccc(C(F)(F)F)cc3)cc2-c2ccc3nccnc3c2)n1` [Example 180, 1-(6-methylpyridin-2-yl)-5-(quinoxalin-6-yl)-N-(4-(trifluoromethyl)phenyl)-1H-pyrazole-3-carboxyamide] was tested, and the IC50 was 100 to 1000 nM. For `Cc1cccc(-n2nc(C(=O)Nc3cccc(C(F)(F)F)c3)cc2-c2ccc3nccnc3c2)n1` [Example 181, 1-(6-methylpyridin-2-yl)-5-(quinoxalin-6-yl)-N-(3-(trifluoromethyl)phenyl)-1H-pyrazole-3-carboxyamide], the IC50 was ~100 nM. For `CNC(=O)c1ccc(NC(=O)c2cc(-c3ccc4nccnc4c3)n(-c3cccc(C)n3)n2)cc1` [Example 182, N-(4-(methylcarbamoyl)phenyl)-1-(6-methylpyridin-2-yl)-5-(quinoxalin-6-yl)-1H-pyrazole-3-carboxyamide], the IC50 was < 100 nM. In the case of `Cc1cccc(-n2nc(C(=O)Nc3ccc(F)cc3)cc2-c2ccc3nccnc3c2)n1` [Example 183, N-(4-fluorophenyl)-1-(6-methylpyridin-2-yl)-5-(quinoxalin-6-yl)-1H-pyrazole-3-carboxyamide], the IC50 is reported as 10 to 100 nM. `Cc1cccc(-n2nc(C(=O)Nc3cccc(F)c3)cc2-c2ccc3nccnc3c2)n1` [Example 184, N-(3-fluorophenyl)-1-(6-methylpyridin-2-yl)-5-(quinoxalin-6-yl)-1H-pyrazole-3-carboxyamide] gave an IC50 of 10 to 100 nM. `Cc1cccc(-n2nc(C(=O)Nc3ccccc3F)cc2-c2ccc3nccnc3c2)n1` [Example 185, N-(2-fluorophenyl)-1-(6-methylpyridin-2-yl)-5-(quinoxalin-6-yl)-1H-pyrazole-3-carboxyamide] was tested, and the IC50 was < 100 nM. Molecule `Cc1cccc(-n2nc(C(=O)Nc3ccc(F)c(F)c3)cc2-c2ccc3nccnc3c2)n1` [Example 186, N-(3,4-difluorophenyl)-1-(6-methylpyridin-2-yl)-5-(quinoxalin-6-yl)-1H-pyrazole-3-carboxyamide] has an IC50 of 10 to 100 nM. `Cc1cccc(-n2nc(C(=O)Nc3ccc(F)cc3F)cc2-c2ccc3nccnc3c2)n1` [Example 187, N-(2,4-difluorophenyl)-1-(6-methylpyridin-2-yl)-5-(quinoxalin-6-yl)-1H-pyrazole-3-carboxyamide] gave an IC50 of 10 to 100 nM. `Cc1cccc(-n2nc(C(=O)Nc3ccc(Cl)cc3)cc2-c2ccc3nccnc3c2)n1` [Example 189, N-(4-chlorophenyl)-1-(6-methylpyridin-2-yl)-5-(quinoxalin-6-yl)-1H-pyrazole-3-carboxyamide] gave an IC50 of 10 to 100 nM. `Cc1cccc(-n2nc(C(=O)Nc3ccccc3Cl)cc2-c2ccc3nccnc3c2)n1` [Example 190, N-(2-chlorophenyl)-1-(6-methylpyridin-2-yl)-5-(quinoxalin-6-yl)-1H-pyrazole-3-carboxyamide] showed an IC50 of 100 to 1000 nM. `Cc1cccc(-n2nc(C(=O)Nc3ccc(Br)cc3)cc2-c2ccc3nccnc3c2)n1` [Example 191, N-(4-bromophenyl)-1-(6-methylpyridin-2-yl)-5-(quinoxalin-6-yl)-1H-pyrazole-3-carboxyamide] was tested, and the IC50 was 10 to 100 nM. Work on `COc1ccc(NC(=O)c2cc(-c3ccc4nccnc4c3)n(-c3cccc(C)n3)n2)cn1` [Example 192, N-(6-methoxypyridin-3-yl)-1-(6-methylpyridin-2-yl)-5-(quinoxalin-6-yl)-1H-pyrazole-3-carboxyamide] yielded an IC50 of 10 to 100 nM. `COc1ccc(CNC(=O)c2cc(-c3ccc4nccnc4c3)n(-c3cccc(C)n3)n2)cc1` [Example 193, N-(4-methoxybenzyl)-1-(6-methylpyridin-2-yl)-5-(quinoxalin-6-yl)-1H-pyrazole-3-carboxyamide] showed an IC50 of ~100 nM. `Cc1cccc(-n2nc(C(=O)NCc3ccc(C#N)cc3)cc2-c2ccc3nccnc3c2)n1` [Example 194, N-(4-cyanobenzyl)-1-(6-methylpyridin-2-yl)-5-(quinoxalin-6-yl)-1H-pyrazole-3-carboxyamide] was tested, and the IC50 was > 100 nM. Work on `CC(=O)c1cccc(CNC(=O)c2cc(-c3ccc4nccnc4c3)n(-c3cccc(C)n3)n2)c1` [Example 195, N-(3-acetylbenzyl)-1-(6-methylpyridin-2-yl)-5-(quinoxalin-6-yl)-1H-pyrazole-3-carboxyamide] yielded an IC50 of 10 to 100 nM. `Cc1cccc(-n2nc(C(=O)NCc3cccc(F)c3)cc2-c2ccc3nccnc3c2)n1` [Example 197, N-(3-fluorobenzyl)-1-(6-methylpyridin-2-yl)-5-(quinoxalin-6-yl)-1H-pyrazole-3-carboxyamide] showed an IC50 of 10 to 100 nM. In the case of `Cc1cccc(-n2nc(C(=O)NCc3ccccc3F)cc2-c2ccc3nccnc3c2)n1` [Example 198, N-(2-fluorobenzyl)-1-(6-methylpyridin-2-yl)-5-(quinoxalin-6-yl)-1H-pyrazole-3-carboxyamide], the IC50 is reported as < 100 nM. `Cc1cccc(-n2nc(C(=O)NCc3ccc(Cl)cc3)cc2-c2ccc3nccnc3c2)n1` [Example 199, N-(4-chlorobenzyl)-1-(6-methylpyridin-2-yl)-5-(quinoxalin-6-yl)-1H-pyrazole-3-carboxyamide] was tested, and the IC50 was > 100 nM.

From US10954232B2, “Pyrazole derivative as ALK5 inhibitor and uses thereof” (HANMI PHARMACEUTICAL CO., LTD., priority 2016, dated 2021)
